Read-outs that look alike come from different tables or passages of the source.
Tests used:
Type in all cases: in vivo, human
[1] = tested on: patients undergoing photorefractive keratectomy (PRK) surgery; assay: PRK study: Ocular Pain Assessment Survey (OPAS)
Method: (§1) The study was a proof of concept, double-masked, randomized, vehicle-controlled study of compound I administered as eye drops in addition to standard of care treatment in patients after PRK surgery. PRK surgery was performed as an outpatient procedure under topical anesthesia with removal of the corneal epithelium to expose the stroma for the laser ablation. Compound I dosing was as single eye drop of 2.5% (25 mg/ml, 0.925 mg/drop), administered four times daily (every six hours) in one eye from immediate post-op (time 0) to last dose at 72 hours.
The OPAS is a validated instrument for quantifying and monitoring corneal and ocular surface pain and quality of life, developed in response to an identified need from a National Eye Institute Workshop in 2010. See Qazi et al., Ophthalmology July 123(7):1458-1468 (2016). The rating scale of the overall pain severity in the OPAS from Qazi et al. rated from 0 (no pain) to 10 (severe pain) or for frequency of symptoms from 0% (never) to 100% (all the time), as per the survey. The patients were asked to fill out the OPAS survey/questionnaire at Day 2, Day 4 (at the end of treatment period with study drug) and Day 8. Statistical analysis of OPAS results was not performed.

[2] = tested on: postoperative ocular pain in patients undergoing photorefractive keratectomy (PRK) surgery; assay: PRK study: visual analog scale (VAS) pain assessment
Method: as §1
The study consisted of 2 treatment periods using a crossover design. Patients underwent PRK surgery on 2 separate occasions (periods), one eye at a time. Patients were randomized to receive either compound 1 or vehicle following procedure 1 and the alternate following procedure 2.
Forty patients were randomized in a 1:1 ratio to two sequences: compound I during period 1, followed by vehicle in period 2, or vehicle during period 1 followed by compound I during period 2. Each patient was administered one drop four times daily for 72 hours following PRK surgery on their study eye (Day 1, Periods 1 and 2). The initial study eye was the non-dominant eye as established at screening and in agreement of the patient and the investigator. The patients returned for follow-up visits on Days 2, 3, 4 and 8 of Period 1 after surgery in the first eye, with optional daily visits to follow the patient until wound healing was complete. The second eye surgery was not performed if any complications were noticed.
Patient subjective experience of pain was recorded using VAS, a numeric assessment of pain between 0 and 100, with 0 representing no pain, and 100 representing worst imaginable pain. […] Since it was important clinically to both decrease the maximum pain as well as the overall pain that the patient experiences during the immediate postoperative period, the two periods of 6 hours and up to 12 hours postoperatively, were evaluated as primary endpoints. All evaluable VAS data was collected using an ePRO, which was an electronic device (cell phone with software application), on which patients marked their pain levels at the appropriate time points.
Rescue oral analgesics: It is not ethical to refuse pain control medication to patients postoperatively as part of a clinical trial. […] Because the use of oral rescue medication may be a potential confounder of the pain VAS evaluation, three approaches were used when analyzing pain VAS scores to account for the influence of pain meds (assuming 4 hours of rescue medication effect): (1) any recorded VAS score within 4 hours after use of rescue medication was considered missing; (2) all the recorded VAS scores was used; and (3) any recorded VAS scores within 4 hours after rescue medication use was imputed by the record taken prior to the rescue medication.

[3] = PRK study: plasma pharmacokinetics of compound I; conditions: for Tmax: read-out: Tmax, Min, Max
Method: Pharmacokinetic (PK) samples were collected at the time points defined in the visit schedule supra, with PK blood collection windows shown in Table 9.
All blood samples (3 mL) were taken from the arm by either direct venipuncture or an indwelling catheter inserted in a forearm vein. After each tube of blood was drawn, it was immediately inverted gently 8-10 times to ensure the mixing of tube contents with anticoagulant (3 mL K2 EDTA). Prolonged sample contact with the rubber stopper was avoided and the tubes were placed upright in a test tube rack surrounded by wet ice until centrifugation.
Within 30 minutes, the sample was centrifuged at about 5° C. for 10 minutes at approximately 2000 G (or the sample was placed on ice and centrifuged at room temperature). Immediately after centrifugation, the whole supernatant (approx. 1.5 mL) was transferred in the first 1.8 mL NUNC 2D barcoded cryovial. After mixing the plasma thoroughly, half of the plasma was transferred from the first cryovial to the second cryovial and the caps were secured. Appropriate PK cryolabels were attached to each cryovial and the labels were secured with clear tape. The cryovials were frozen immediately over dry ice then, kept frozen at ≤−20° C. until shipment to the central lab. The vials were shipped in biweekly batches.
Compound I was quantified in plasma using a validated LC-MS/MS method; the lower limit of quantification (LLOQ) was 0.05 ng/mL. Concentrations were expressed in ng per mL units. When feasible, bandage contact lenses (BCL) exposed to study drug were collected and analyzed for residual drug exposure after treatment (LLOQ: 5.00 ng/mL in 0.55 mL of extraction fluid, or 2.75 ng/BCL). Concentrations below the LLOQ were reported as “zero” and missing data were labeled as such.
The following PK parameters were determined as relevant using the actual recorded sampling times and non-compartmental method with Phoenix™ WinNonlin® (Version 6.4): Cmax, Tmax, AUClast (calculated), Clast and Tlast from the plasma concentration-time data. Pre-dose concentrations were determined by inspection at nominal 0, 24 and 72 hours. The linear trapezoidal rule was used for AUClast calculation. No PK parameters were calculated from the bandage contact lenses compound I concentration data.

[4] = 2.5% four times daily after PRK
[5] = 2.5% four times daily after PRK, VAS 0-100
[6] = 2.5% four times daily after PRK, VAS 0-100, ORM-adjusted, N = 30
[7] = across 4 days of repeated QID dosing
[8] = plasma, Day 1 (first dose), 2.5% topical ocular
[9] = plasma, Day 1 (first dose), 2.5% topical ocular, N 34
[10] = plasma, Day 4 (13th dose), 2.5% four times daily

## CC(C)c1nc2cc(O)ccc2c(=O)n1-c1ccc(C#N)cc1 [Compound I, 4-(7-hydroxy-2-isopropyl-4-oxo-4H-quinazolin-3-yl)-benzonitrile]
[1]; Day 2, compared to Vehicle, no statistical analysis
  OPAS questions 4, 5, 6: eye pain intensity during the previous 24 hours (most painful, least painful, average): all 3 answers numerically favored compound I
[1]; compared to Vehicle, no statistical analysis
  OPAS questions 22-25: how often eye pain associated with redness, burning, sensitivity to light, tearing: all answers favored compound I
[1]; in vivo
  OPAS: pain control and quality of life, compound I vs. Vehicle treatment period: better pain control and quality of life
[2]; [4]
  VAS 0-12 hours post-operatively: % Diff compound I vs. Vehicle: −22%
  VAS at 6 hours post-operatively: % Diff compound I vs. Vehicle: −25%
[2]; [5]
  VAS 0-12 hours post-operatively: Diff (compound I-Vehicle) of model based means: −8.56
  VAS at 6 hours post-operatively: Diff (compound I-Vehicle) of model based means: −11.1
[2]; [6]
  Model estimated mean VAS pain severity score 0-12 hours post-operatively: 30.90
  Model estimated mean VAS pain severity score at 6-hours post-operatively: 34.63
[2]; 6.5 hours vs 6 hours post-operative
  Mean change in VAS score one-half hour after instillation of eye drop: −3.1
[2]; 18.5 hours vs 18 hours post-operative
  Mean change in VAS score one-half hour after instillation of eye drop: 2.8
[2]; 24.5 hours vs 24 hours post-operative
  Mean change in VAS score one-half hour after instillation of eye drop: 1.3
[2]; all scheduled time points
  VAS pain severity scores vs Vehicle up to 36 hours after surgery: lower for compound I than Vehicle at all scheduled time points up to and including 36 hours after surgery
[2]; no statistically significant difference at p 0.10
  Difference between compound I and Vehicle VAS scores from 36 to 72 hours after PRK surgery: only marginally different
[2]; p-value threshold 0.10, 6 out of the 7 time points, starting with hour 1
  VAS pain severity scores vs Vehicle during the first 18 hours after surgery: statistically significantly lower VAS pain severity scores
[3]; 2.5% 4 times daily
  Mean AUClast increase over the 4 days (Day 4 vs Day 1): 6.9 fold
  Mean Cmax after 13th dose on Day 4 relative to first dose on Day 1: 5.3 fold
[3]; [7]
  AUClast, range: 0.261 to 14.5 ng·h/mL
  Observed Cmax, range: 0.195 to 7.56 ng/mL
[3]; after either single (first dose) or repeated 4 times daily topical ocular administration
  Median plasma Tmax: approximately 0.5 hours
[3]; human, plasma, topical, 2.5 % (four times daily), across 4 days of repeated QID dosing, read-out: Observed Cmax, range
  Cmax: 0.195 to 7.56 ng/mL
[3]; human, topical or ocular, plasma, Day 1 (first dose), 2.5% topical ocular
  Tmax: 0.167 to 2 h
[3]; human, topical, plasma, Day 4 (13th dose), 2.5% four times daily
  Tmax: 0 to 2.08 h
[3]; [8]
  AUClast, Median: 0.569 ng·h/mL
  Cmax, Median: 0.375 ng/mL
  Tmax, Median: 27.5 min
[3]; [9]
  AUClast, Mean (SD): 0.638 ng·h/mL
  Cmax, Mean (SD): 0.454 ng/mL
[3]; [10]
  AUClast, Median: 3.42 ng·h/mL
  Cmax, Median: 2.07 ng/mL
  Tmax, Median: 28 min
[3]; plasma, Day 4 (13th dose), 2.5% four times daily, N 31
  AUClast, Mean (SD): 4.38 ng·h/mL
[3]; plasma, Day 4 (13th dose), 2.5% four times daily, N 33
  Cmax, Mean (SD): 2.40 ng/mL
[3]; prior to the 5th dose on Day 2 (24 hr post 1st dose)
  Trough mean plasma concentration (end of 6-hour dose interval): 1.25 ng/mL
[3]; prior to the 13th dose on Day 4 (72 hr post 1st dose)
  Trough mean plasma concentration (end of 6-hour dose interval): 1.99 ng/mL

Reference: US11234982B2, “Methods for treating ocular surface pain” (NOVARTIS AG, priority 2019, dated 2022)
